Test results taken from PMC6271780, “Determination of Bioactive Components in Chinese Herbal Formulae and Pharmacokinetics of Rhein in Rats by UPLC-MS/MS” (Molecules, 2014).

Key:
[1] = design: method as in PMID 24214833; settings: cited from earlier work; for detection in rat plasma, decoction group: after oral administration of SHXXT decoction; for detection in rat plasma, maceration group: after oral administration of SHXXT maceration
[2] = Comparative pharmacokinetics of rhein in rats after oral rhein, rhubarb or SHXXT (plasma, UPLC-MS/MS); assay type: in vivo, Sprague-Dawley rats
Text: All animal experimental protocols were reviewed and approved by the Institutional Animal Care and Use Committee (IACUC number: 1011202) of National Yang-Ming University. Male specific pathogen-free Sprague-Dawley rats were obtained from the Laboratory Animal Center of the National Yang-Ming University, Taipei, Taiwan. The animals had free access to food (laboratory rodent diet 5P14, PMI Feeds, Richmond, IN, USA) and water. For pharmacokinetic study, Sprague-Dawley rats weighing 220 ± 20 g were anesthetized with pentobarbital (50 mg/kg, i.p.) for cannulation. A polyethylene tube (PE50) was implanted into the left carotid artery for blood sampling. The cannula was exteriorized, fixed in the dorsal region of the neck. Patency of the tube was maintained by flushing with heparinized saline (20 IU/mL). After surgery, the rats were kept in cages individually and allowed to recover for one day. The dose of herbal formula for translation from human to animal is recommended by the US Food and Drug Administration guidelines as the following conversion equation : Human equivalent dose (HED, mg/kg) = animal dose (mg/kg) × (animal Km/human Km). Study on pharmacokinetics of rhein at 50, 100, and 200 mg in human (60 kg in adults) has been investigated, and therefore, rhein at 11.9 mg/kg was studied in this study according to the dose translation equation. Briefly, the pure compound rhein, the rhubarb extract, and the SHXXT formula suspended in water at doses of 11.9 mg/kg, 5.2 g/kg, and 5 g/kg were individually administered to rats by oral gavage. The doses of rhubarb extract and SHXXT extract were equivalent to rhein administration dose of 11.9 mg/kg. About 200 µL of blood samples was withdrawn from the cannula implanted in the carotid artery and placed into a heparin-rinsed vial at 0, 15, 30, 45, 60, 90, 120, 150, 180, 240, 300 and 360 min. The method of plasma sample preparation was slightly modified from the previous study. For quantitative analysis, the plasma sample (50 µL) was vortex-mixed with acetonitrile (100 µL) for protein precipitation. Data from these samples were used to construct the pharmacokinetic curve of rhein. The plasma sample was diluted by blank plasma sample at an appropriate ratio before analysis if the rhein concentration was excess 2500 ng/mL. Pharmacokinetic calculations were performed on each individual set of data using the pharmacokinetic software WinNonlin Standard Edition, version 1.1 (Pharsight Corp., Mountain View, CA, USA) by noncompartmental methods.

[3] = design: method as in PMID 21945452; settings: Chinese healthy subjects, single oral administration, range 50–200 mg; cited from earlier work
[4] = design: method as in PMID 19737807; settings: after SHXXT; cited from earlier work
[5] = after oral administration of SHXXT
[6] = male, Sprague-Dawley, po, rhein in rat plasma, rhein 11.9 mg/kg, rhubarb 5.2 g/kg or SHXXT 5 g/kg (each equivalent to rhein 11.9 mg/kg), n = 6, mean ± SD
[7] = rhein in rat plasma, p.o., rhein 11.9 mg/kg, rhubarb 5.2 g/kg or SHXXT 5 g/kg (each equivalent to rhein 11.9 mg/kg), n = 6, mean ± SD

Row | Structure (SMILES) | free (unconjugated) form detected in rat plasma [2, 5] | detection in rat plasma, decoction group [1] | detection in rat plasma, maceration group [1] | other results
1 | COc1cc2c(cc1O)CC[n+]1cc3c(OC)c(OC)ccc3cc1-2 [jatrorrhizine] |  | detected | absent | 
2 | c1c2c(cc3c1OCO3)-c1cc3ccc4c(c3c[n+]1CC2)OCO4 [coptisine] |  | detected | absent | 
3 | COc1cc2c(cc1OC)-c1cc3ccc(OC)c(OC)c3c[n+]1CC2 [palmatine] |  | detected | absent | free (unconjugated) form detected in rat plasma ([2]; rat, in vivo, po): not detected
4 | O=C(O)c1cc(O)c2c(c1)C(=O)c1cccc(O)c1C2=O [Rhein, 4,5-dihydroxy-9,10-dioxoanthracene-2-carboxylic acid] | existed in the free form |  |  | MRT ([2]; male, Sprague-Dawley, po, rhein in rat plasma, p.o., rhein 11.9 mg/kg, rhubarb 5.2 g/kg or SHXXT 5 g/kg (each equivalent to rhein 11.9 mg/kg), n = 6, mean ± SD, read-out: MRT (mean residence time) (converted)): 1.87 h; half-life ([2]; male, Sprague-Dawley, po, rhein in rat plasma, p.o., rhein 11.9 mg/kg, rhubarb 5.2 g/kg or SHXXT 5 g/kg (each equivalent to rhein 11.9 mg/kg), n = 6, mean ± SD, read-out: T1/2 (elimination half-life)): 2.4 ± 0.287 h; AUC [2, 6]: 3130 ng·h/mL; Cmax [2, 6]: 2450 ± 550 ng/mL; Tmax [2, 6]: 0.417 h; CL (total body clearance) [2, 7]: 58 ± 7.89 mL/min/kg; Vss (volume of distribution) [2, 7]: 12.2 ± 2.10 L/kg; dose linearity of pharmacokinetics [3]: linear pharmacokinetics

Further lines, with some results ahead:

Row | free (unconjugated) form detected in rat plasma [2, 5] | Structure (SMILES) | detection in rat plasma, decoction group [1] | detection in rat plasma, maceration group [1] | other results
5 | not detected | O=C(O)[C@H]1O[C@@H](Oc2cc3oc(-c4ccccc4)cc(=O)c3c(O)c2O)[C@H](O)[C@@H](O)[C@@H]1O [baicalin] |  |  | 
6 | not detected | O=c1cc(-c2ccccc2)oc2cc(O)c(O)c(O)c12 [baicalein] |  |  | forms determined in serum [4]: only the conjugated metabolites
7 | not detected | COc1ccc2cc3[n+](cc2c1OC)CCc1cc2c(cc1-3)OCO2 [berberine] | detected | absent | 
8 | not detected | Cc1cc(O)c2c(c1)C(=O)c1cc(O)cc(O)c1C2=O [emodin] |  |  | forms determined in serum [4]: only the conjugated metabolites
